# Data published in paper PMC12893914 (Nature, 2025).
# Columns and labels:
# MOR [1] = molecular target: T1, MOR (Mus musculus, UniProt P42866); assay type: biochemical; details: mouse spinal cord membranes; 100 nM DAMGO pulse loading
# MOR [2] = molecular target: T1, MOR; assay type: biochemical; details: mouse spinal cord membranes
# T1 sequence (P42866 whole entry): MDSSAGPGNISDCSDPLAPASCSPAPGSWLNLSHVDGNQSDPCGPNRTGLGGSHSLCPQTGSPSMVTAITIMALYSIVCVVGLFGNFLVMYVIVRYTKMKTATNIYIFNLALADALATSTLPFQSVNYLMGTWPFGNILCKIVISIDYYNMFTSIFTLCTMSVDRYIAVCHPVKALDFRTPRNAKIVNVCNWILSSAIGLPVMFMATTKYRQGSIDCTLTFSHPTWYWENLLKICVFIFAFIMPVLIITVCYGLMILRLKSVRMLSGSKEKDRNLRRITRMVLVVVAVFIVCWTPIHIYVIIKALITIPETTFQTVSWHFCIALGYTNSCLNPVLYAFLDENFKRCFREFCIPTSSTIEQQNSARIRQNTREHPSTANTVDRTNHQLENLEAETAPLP
structure (smiles),measurement,setting,value
"C[C@@H](NC(=O)[C@@H](N)Cc1ccc(O)cc1)C(=O)NCC(=O)N(C)[C@@H](Cc1ccccc1)C(=O)NCCO [DAMGO, [D-Ala2, N-MePhe4, Gly-ol]-enkephalin]",efficacy in ^35S-GTPγS release,MOR [1],does not reach this plateau
same,efficacy class in ^35S-GTPγS binding,MOR [2],full agonists
same,stimulation of GTPγS binding over baseline,MOR [2]; 10 µM DAMGO,40%
same,stimulation of ^35S-GTPγS binding over baseline,MOR [2]; 10 µM DAMGO,1.4 ± 0.01 fold
